One data set deals with MRSE 35984. The data set is described as follows: MIC broth microdilution assay. The class given is cell-based, Staphylococcus epidermidis. The conditions noted are these: for MIC: Staphylococcus epidermidis, MRSE. For orientation: Broth dilution looks for growth in wells or tubes with falling amounts of substance.
A short description of data set [1]: LDH release assay for HeLa cytotoxicity. The class given is cell-based. The following applies: human, HeLa cells; LDH release, 24 hours; tested at 25, 50 and 100 µM; read-out: HeLa Cytotox. IC50. On the technique in general: Release of lactate dehydrogenase indicates damage to the cell membrane.
In data set [2] the test system is MRSA BAA-1707. In words: MIC broth microdilution assay. The class given is cell-based, Staphylococcus aureus. The conditions noted are these: for MIC: Staphylococcus aureus.
The next data set concerns VRE 700221. The data set is described as follows: MIC broth microdilution assay. In kind it is cell-based, Enterococcus faecium. The conditions noted are these: for MIC: Enterococcus, VRE.
Another data set has as its system S. epi 12228. In words: MIC broth microdilution assay. The following applies: Staphylococcus epidermidis, 12228. In kind it is cell-based, Staphylococcus epidermidis.
Data set [3] can be described thus: Hemolysis assay with red blood cells. The following applies: human, pH 7.2.
The next data set concerns MRSA-2. In words: MIC broth microdilution assay. The following applies: Staphylococcus aureus, MRSA. In kind it is cell-based, Staphylococcus aureus.
Another data set deals with MRSA-1. In words: MIC broth microdilution assay. In kind it is cell-based, Staphylococcus aureus. The following applies: Staphylococcus aureus, MRSA.
A further data set deals with four MRSA isolates. In words: MIC assays, panel of four MRSA isolates. The conditions noted are these: Staphylococcus aureus, range over isolates, read-out: MIC against a panel of four MRSA isolates. The class given is cell-based.
The test system of another data set is S. epidermidis. The data set is described as follows: MIC assays, S. epidermidis strains. The conditions noted are these: Staphylococcus epidermidis; range over strains. The class given is cell-based.
For another data set, the system named is MtB H37Ra. In words: MIC assay for Mycobacterium tuberculosis. The class given is cell-based.
For a further data set, the system named is HeLa cells. The data set is described as follows: LDH release assay for HeLa cytotoxicity. The conditions noted are these: 100 µM. The class given is cell-based.
Data set [4] deals with MRSA BAA-1707. The data set is described as follows: MIC assay with metal(II) cation co-treatment. In kind it is cell-based, Staphylococcus aureus.
Data set [5] is described as follows: Chemical stability in aqueous formulations. In kind it is physicochemical. The following applies: room temperature.
For another data set, the system named is MRSA BAA-44. The data set is described as follows: MIC broth microdilution assay. The following applies: Staphylococcus aureus; Table 1; read-out: MIC MRSA BAA-44. In kind it is cell-based.
Where [6] appears, read: Table 1, read-out: MIC MRSE 35984.
Where [7] appears, read: Table 3, read-out: MRSE 35984 MIC.
Where [8] appears, read: Table 1, three independent experiments, read-out: MIC MRSA BAA-1707.
The mark [9] stands for this setting: Table 3, read-out: MRSA BAA-1707 MIC.
Where [10] appears, read: single plate shown as picture, read-out: MIC (µM), MIC Assay against MRSA BAA-1707.
The mark [11] stands for this setting: Table 1, read-out: MIC S. epi 12228.
Setting [12] is: single plate shown as picture, read-out: MIC (µM), MIC Assay Against S. epidermidis 12228.
Setting [13] is: single plate shown as picture, read-out: MIC (µM), MIC Assay Against MRSA-1.

Values after ≈ are worked out from the molar mass of the structure shown. Where two headings read alike, the source gives them in different places. Marks after values point to notes of the source that are not given here. Where only a bound is given, the exact number is not on record here.

The term IC50 denotes the midpoint of a concentration-inhibition curve.

Turning to `CCc1cccc2nc3c(O)c(Br)cc(Br)c3nc12` [HP 18], the MIC in the data set with MRSE 35984 (setting [6]) was 0.1 to 0.78 µM (≈ 0.0382 to 0.298 µg/mL); with MRSE 35984 (setting [7]) it was at most 0.1 µM; with MRSE 35984 (single plate shown as picture, read-out: MIC (µM), MIC Assay Against MRSE 35984), 0.1 µM (≈ 0.0382 µg/mL); in the data set on MRSA BAA-1707 [2] (setting [8]) it was 0.05 to 0.3 µM (≈ 0.0191 to 0.115 µg/mL); with MRSA BAA-1707 [2] (setting [9]) it was at most 0.1 µM; in the data set on MRSA BAA-1707 [2] (setting [10]) it was 0.1 µM (≈ 0.0382 µg/mL). Further, the MIC came out at 0.15 µM (≈ 0.0573 µg/mL) in the data set with VRE 700221 (Table 1, read-out: MIC VRE 700221); 0.15 µM (≈ 0.0573 µg/mL) in the data set with VRE 700221 (Table 3, read-out: VRE 700221 MIC); 0.2 µM (≈ 0.0764 µg/mL) in the data set on VRE 700221 (single plate shown as picture, read-out: MIC (µM), MIC Assay Against VRE 700221); 0.3 µM (≈ 0.115 µg/mL) in the data set on S. epi 12228 (setting [11]); 0.39 µM (≈ 0.149 µg/mL) with S. epi 12228 (setting [12]); 0.39 µM (≈ 0.149 µg/mL) in the data set with MRSA-2 (Table 1, read-out: MIC MRSA-2). Besides, the MIC in the data set with MRSA-2 (single plate shown as picture, read-out: MIC (µM), MIC Assay Against MRSA-2) was 0.39 µM (≈ 0.149 µg/mL); in the data set on MRSA-1 (Table 1, read-out: MIC MRSA-1), 0.15 µM (≈ 0.0573 µg/mL); in the data set on MRSA-1 (setting [13]), 0.2 µM (≈ 0.0764 µg/mL); in the data set on four MRSA isolates, 50 to 590 nM (≈ 0.0191 to 0.225 µg/mL); in the data set with S. epidermidis, 100 to 300 nM (≈ 0.0382 to 0.115 µg/mL); with MtB H37Ra (168 h, seven days), 25000 nM. In addition, the “MIC MRSE 35984” value in the data set on MRSE 35984 (Table 1) is reported as ≤ 0.10^b µM. The IC50 at 24 h in [1] was over 100 µM. Also, in the data set on MRSA BAA-1707 [2] (Table 1, three independent experiments), the “MIC MRSA BAA-1707” value is ≤ 0.10^b µM. Besides, in the data set with VRE 700221 (Table 1), the “MIC VRE 700221” value is 0.15^a µM. The molecule also registered a hemolysis at 1 h, 200 µM in data set [3] of 1.7%.
In the case of `Oc1c(Br)cc(Br)c2nc3ccc(Cl)cc3nc12` [HP 22], in [1], the IC50 at 24 h was over 100 µM. Also, the MIC was 0.15 µM (≈ 0.0583 µg/mL) in the data set with MRSA BAA-1707 [2] (setting [8]); 0.15 µM (≈ 0.0583 µg/mL) with MRSA BAA-1707 [2] (setting [9]); 0.1 µM (≈ 0.0388 µg/mL) in the data set with MRSA BAA-1707 [2] (setting [10]); 12.5 µM (≈ 4.86 µg/mL) in the data set on S. epi 12228 (setting [11]); 12.5 µM (≈ 4.86 µg/mL) with S. epi 12228 (setting [12]); 0.15 µM (≈ 0.0583 µg/mL) in the data set on MRSA-1 (Table 1, read-out: MIC MRSA-1). Besides, the MIC was 50 to 590 nM (≈ 0.0194 to 0.229 µg/mL) in the data set with four MRSA isolates; 2.4 µg/mL against MtB H37Ra; 6250 nM with MtB H37Ra (168 h, seven days). For the same molecule, the hemolysis at 1 h, 200 µM in data set [3] is at most 1%.
With `COCCOCCOCCOCCOC(=O)Oc1c(Br)cc(Br)c2nc3c(C)cccc3nc12` [HP 25], the MIC was 0.15 µM (≈ 0.0903 µg/mL) with MRSE 35984 (setting [6]); 0.15 µM (≈ 0.0903 µg/mL) with MRSE 35984 (setting [7]); 0.003 µM (≈ 0.00181 µg/mL) in the data set with MRSA BAA-1707 [2] (setting [8]); 0.003 µM (≈ 0.00181 µg/mL) in the data set with MRSA BAA-1707 [2] (setting [9]); 0.003 µM (≈ 0.00181 µg/mL) with MRSA BAA-1707 [2] (setting [10]); at most 0.1 µM in the data set on S. epi 12228 (setting [11]). Further, the MIC is 0.1 µM in the data set with MRSA BAA-1707 [4] (Staphylococcus aureus, Cu(II) co-treatment plate, lanes without metal, read-out: MIC); 0.1 µM in the data set on MRSA BAA-1707 [4] (Staphylococcus aureus, Fe(II) co-treatment plate, lanes without metal, read-out: MIC); 0.003 µM with MRSA BAA-1707 [4] (Staphylococcus aureus, Mg(II) co-treatment plate, lanes without metal, read-out: MIC); 0.0047 µM in the data set on MRSA BAA-1707 [4] (Staphylococcus aureus, Table 2, MRSA BAA-1707, no metal(II) cation added, read-out: MIC); 0.003 µM with MRSA BAA-1707 [4] (Staphylococcus aureus, Zn(II) extended plate assay, lanes without metal, read-out: MIC); over 100 µM in the data set on MRSA BAA-1707 [4] (Staphylococcus aureus, copper(II) at 200 µM co-treatment, read-out: MIC w/Cu2+). The MIC with MRSA BAA-1707 [4] (Staphylococcus aureus, iron(II) at 200 µM co-treatment, read-out: MIC w/Fe2+) is 25 µM; with MRSA BAA-1707 [4] (Staphylococcus aureus, magnesium(II) at 200 µM co-treatment, read-out: MIC w/Mg2+), 0.0047 µM; in the data set with MRSA BAA-1707 [4] (Staphylococcus aureus, single plate, 200 µM Cu(II), read-out: MIC (µM) + Cu(II)), over 100 µM; with MRSA BAA-1707 [4] (Staphylococcus aureus, single plate, 200 µM Fe(II), read-out: MIC (µM) + Fe(II)), 25 µM; with MRSA BAA-1707 [4] (Staphylococcus aureus, single plate, 200 µM Mg(II), read-out: MIC (µM) + Mg(II)), 0.003 µM; in the data set on MRSA BAA-1707 [4] (Staphylococcus aureus, zinc(II) at 200 µM co-treatment, read-out: MIC w/Zn2+) it was 7e-05 µM. The MIC was 0.00005 µM with MRSA BAA-1707 [4] (extended plate assay, 200 µM Zn(II), read-out: MIC (µM) + Zn(II)); 13 nM (≈ 0.00783 µg/mL) in the data set on MRSA BAA-44; at most 0.1 µM with MRSA-2 (Table 1, read-out: MIC MRSA-2); at most 0.1 µM in the data set on MRSA-1 (Table 1, read-out: MIC MRSA-1); 0.1 µM (≈ 0.0602 µg/mL) in the data set with MRSA-1 (setting [13]); 12500 nM against MtB H37Ra (168 h, seven days). For the same molecule, the “HeLa cell cytotoxicity at 100 µM” value with HeLa cells is given as “no HeLa cell cytotoxicity”. In [1], the IC50 at 24 h was over 100 µM. The hemolysis at 1 h, 200 µM in data set [3] is at most 1%. In addition, the “chemically stable in aqueous formulations” value in data set [5] was over 1 month.

Values taken from article PMC5435703 (Scientific Reports, 2017).
